Laboratory results from US20260007679A1, “METHODS OF TREATING CANCER USING 3-(4-((4-(MORPHOLINOMETHYL)BENZYL)OXY)-1-OXOISOINDOLIN-2-YL)PIPERIDINE-2,6-DIONE” (Celgene Corporation, priority 2012, published 2026).
One block for each molecule: values may come before it.

Key:
[1] = test system: NK cell mediated ADCC against Rituximab coated lymphoma cells; assay: NK cell mediated ADCC assay (LDH release); assay type: cell-based, human
Method: NK cells from healthy donors were isolated from buffy coat blood by negative selection using the RosetteSep NK cell enrichment cocktail (Stem Cell Technologies, Vancouver, BC) prior to Ficoll-Hypaque (Fisher Scientific Co LLC, PA) density gradient centrifugation following the manufacturers' instructions. CD56+NK cells were isolated to ˜85% purity, as determined by flow cytometry (BD Biosciences, CA).
ADCC Assay: Purified NK cells (5×104) were seeded in 96-well U-bottom plates in 100 μL of RPMI-1640 medium without phenol (Invitrogen)+2% human AB+serum (Gemini Bio Products, CA) and treated with 10 ng/mL rhIL-2 and rituximab (5 μg/mL) plus different concentrations of test compounds at 0.01 to 10 μM for 48 hours. Various lymphoma cell lines (GCB-DLBCL: WSU-DLCL2 and Farage; Follicular lymphoma: DoHH2; ABC-DLBCL: Riva; Burkitt's lymphoma [BL]: Raji) were treated with 5 µg/mL rituximab for 30 minutes at 37° C. Unbound rituximab was washed off, target cells (5×103/100 μL/well) were added to the pretreated effector cells (NK cells) at a 10:1 ratio, and the two were co-incubated for 4 hours at 37° C. Control conditions consisted of NK cells plus tumor cells treated with (1) medium alone, (2) rituximab only, or (3) IL-2 alone. Using an aliquot of supernatant (50 μL), NK cell cytotoxicity against tumor cells was analyzed using a standard lactate dehydrogenease (LDH) release assay to measure ADCC (CytoTox 96 Non-Radioactive Cytoxicity Assay, Promega, WI). Spontaneous release by target cells alone was <15% of the maximum release, as determined with target cells lysed in 1% Triton X-100. The experimental release was corrected by subtraction of the spontaneous release of effector cells at the corresponding dilution. The percentage of specific lysis was calculated according to the formula: Percentage specific lysis=100×(experimental−effector spontaneous−target spontaneous)/(target maximum−target spontaneous).
NK cell-mediated specific lysis was calculated with the following formula: Percentage specific lysis=[(experimental release−spontaneous release)/(maximum release−spontaneous release)]×100. Results were analyzed using GraphPad Prism v5.0 software. Data are presented as the percentage cytotoxicity relative to DMSO-treated cells.

[2] = test system: purified primary human T cells stimulated using immobilized anti-CD3 antibody; assay: T-cell costimulation, IL-2 production; assay type: cell-based
Method: (§1) CRBN ubiquitination was measured in HEK293T cells, which were transfected with an amino-terminal His-biotin-tagged CRBN construct, then preincubated with compounds for one hour followed by treatment with the MG132 proteasome inhibitor (to arrest degradation of ubiquitinated proteins). Cells were lysed and processed to measure CRBN ubiquitination by SDS-PAGE and immunoblot analysis using an anti-ubiquitin antibody. Cell proliferation studies were conducted in lenalidomide-sensitive and refractory multiple myeloma cells. […] T-cell costimulation was measured in purified primary human T cells stimulated using immobilized anti-CD3 antibody in cell culture for 2 days, and cytokine secretion was measured by ELISA.

[3] = test system: Rec-1 MCL cells; assay: 3 day 3H-thymidine incorporation assay; assay type: cell-based
[4] = test system: Karpas-1106P; assay: 5 day 3H thymidine incorporation; assay type: cell-based; conditions: Homo sapiens, PMBL
Method: (§2) Cells were treated with the tested compound for 5 days at 37° C.; proliferation of cells was determined using ^3H-thymidine incorporation method.

[5] = test system: OCI-Ly10; assay: 5 day 3H thymidine incorporation; assay type: cell-based; conditions: Homo sapiens, ABC subtype
Method: as §2

[6] = test system: OCI-Ly19; assay: 5 day 3H thymidine incorporation; assay type: cell-based; conditions: Homo sapiens, GCB subtype
Method: as §2

[7] = test system: OCI-Ly3; assay: 5 day 3H thymidine incorporation; assay type: cell-based; conditions: Homo sapiens, ABC subtype
Method: as §2

[8] = test system: RIVA; assay: 5 day 3H thymidine incorporation; assay type: cell-based; conditions: ABC subtype
Method: as §2

[9] = test system: SUDHL4; assay: 5 day 3H thymidine incorporation; assay type: cell-based; conditions: Homo sapiens, SU-DHL-4; GCB subtype
Method: as §2

[10] = test system: TMD8; assay: 5 day 3H thymidine incorporation; assay type: cell-based; conditions: Homo sapiens, ABC subtype
Method: as §2

[11] = test system: U2932; assay: 5 day 3H thymidine incorporation; assay type: cell-based; conditions: Homo sapiens, ABC subtype
Method: as §2

[12] = test system: WSU-DLCL2; assay: 5 day 3H thymidine incorporation; assay type: cell-based; conditions: Homo sapiens, WSUDLCL2; GCB subtype
Method: as §2

[13] = test system: Revlimid-resistant NCI-H929 R4-10; assay: Proliferation and viability by 7-AAD staining; assay type: cell-based; conditions: Homo sapiens, NCI-H929, 120 h; R4-10; 5 days; read-out: IC50, proliferation
[14] = test system: lenalidomide resistant H929 subclones; assay: Proliferation and viability by 7-AAD staining; assay type: cell-based
Method: The Revlimid-resistant or -sensitive cell lines were treated with test compounds for 5 days, and then cell proliferation and viability were assessed by 7-aminoactinomycin D (7-AAD) staining.
as §1

[15] = test system: H929 cells; assay: Cell cycle and protein expression in H929 cells; assay type: cell-based
[16] = test system: DoHH2 Follicular Lymphoma xenograft; assay: DoHH2 Follicular Lymphoma xenograft model; assay type: in vivo, mouse
[17] = 2 mg/kg monotherapy, 91% S-enantiomer, 9% R-enantiomer
[18] = 3 mg/kg monotherapy, 84% S-enantiomer, 16% R-enantiomer
[19] = 3 mg/kg with Rituxan 1 mg/kg, 84% S-enantiomer, 16% R-enantiomer
[20] = 30 mg/kg monotherapy, Compound I-S: 84% S-enantiomer, 16% R-enantiomer
[21] = 30 mg/kg with Rituxan 1 mg/kg, Compound I-S: 84% S-enantiomer, 16% R-enantiomer
[22] = 40 mg/kg monotherapy, Compound I-S: 91% S-enantiomer, 9% R-enantiomer

SMILES: O=C1CCC(N2Cc3c(OCc4ccc(CN5CCOCC5)cc4)cccc3C2=O)C(=O)N1 (racemic) [Compound I, 3-(4-((4-(morpholinomethyl)benzyl)oxy)-1-oxoisoindolin-2-yl)piperidine-2,6-dione]
concentration of peak ADCC activity ([1]; Farage cells): 1 µM
concentration of peak ADCC activity ([1]; Raji cells): 0.1 µM
rituximab-mediated ADCC, all cell lines ([1]; WSU-DLCL2, Farage, DoHH2, Riva, Raji): more active than compounds I-S and I-R in all the cell lines tested except in Riva cells
concentration of peak ADCC activity ([1]; WSU-DLCL2 cells): 0.1 µM
concentration of peak ADCC activity ([1]; other cell lines (than WSU-DLCL2 and Raji)): 1 µM

EC50 [2]: ~0.29 nM
IC50 [4]: 280 nM
IC50 [5]: 0.9 nM
IC50 [6]: > 10 µM
IC50 [7]: > 10 µM
IC50 [8]: 2300 nM
IC50 [9]: 1600 nM
IC50 [10]: 59 nM
IC50 [11]: 5 nM
IC50 [12]: 240 nM
IC50 [13]: 1580 nM
IC50 ([14]; Homo sapiens, NCI-H929, 120 h, read-out: IC50 for inhibition of proliferation): 510 to 1580 nM
SMILES: O=C1CC[C@H](N2Cc3c(OCc4ccc(CN5CCOCC5)cc4)cccc3C2=O)C(=O)N1 [Compound I-S, (S)-3-(4-((4-(morpholinomethyl)benzyl)oxy)-1-oxoisoindolin-2-yl)piperidine-2,6-dione]
IC50 ([3]; Homo sapiens, Rec1, 72 h, 3 day, read-out: anti-proliferative IC50): 27 nM
combination effect, fractional product method ([3]; combined with Rituxan): additive manner
activity against Revlimid-resistant cell lines [14]: active
expression of cyclin-dependent kinase inhibitor p27 ([15]; 48 hours): increased
expression of retinoblastoma protein (pRB) ([15]; 48 hours): decreased
expression of survivin ([15]; 48 hours): decreased
decrease in cell cycle (S-phase) ([15]; after 24 hours of treatment): 50%
% TGD ((T − C)/C) [16, 17]: 33%
% TGI at D12 (T/C) [16, 17]: 49%
tumor growth, combination study ([16]; 3 mg/kg in combination with Rituxan): more efficacious than Revlimid at 30 mg/kg in combination with Rituxan
% TGD ((T − C)/C) [16, 18]: 13%
% TGI at D12 (T/C) [16, 18]: 27%
% TGD ((T − C)/C) [16, 19]: 57%
% TGI at D12 (T/C) [16, 19]: 71%
% TGD ((T − C)/C) [16, 20]: 21%
% TGI at D12 (T/C) [16, 20]: 35%
% TGD ((T − C)/C) [16, 21]: 56%
% TGI at D12 (T/C) [16, 21]: 50%
% TGD ((T − C)/C) [16, 22]: 52%
% TGI at D12 (T/C) [16, 22]: 67%
tumor growth, monotherapy study ([16]; 2 and 40 mg/kg): significantly inhibits tumor growth
